Source: patent publication US6831199B1, “Pyrimidine compounds and derivatives thereof” (G. D. Searle & Co., priority 1995, dated 2004)
pIC50: −log10 of the molar value. Structures can show the parent of a compound that is named as a salt. Where two headings read alike, the source gives them in different places.

What was measured:
[1] = tested on: platelet rich plasma; experiment: Human platelet rich plasma assay (ADP induced platelet aggregation); type: cell-based; settings: read-out: Human PRP
Outline: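 Citrated platelet-rich plasma from aspirin-free healthy human donors was stirred at 37 °C and preincubated with compound for 1 min. Aggregation was then triggered with ADP (added as a 200 uM solution) and recorded photometrically for 3 min. Dose–response curves were built from % inhibition of the maximal saline-control response.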

[2] = biological target: T1, Human vitronectin receptor (αvβ3) (Homo sapiens, UniProt P05106+P06756); experiment: Vitronectin adhesion assay (solid phase receptor assay, competition with biotinylated vitronectin); type: binding
T1 construct: Human vitronectin receptor (αvβ3) was purified from human placenta; from tissue; host or cells: human placenta
Outline: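 Purified human αvβ3 coated overnight at 4 °C in TBS with 1.0 mM Ca++, Mg++, Mn++, pH 7.4; compounds (top final 1.0×10^−4 M) competed with 1 nM biotinylated vitronectin for 2 h at room temperature. Bound ligand detected by HRP anti-biotin/OPD at A450; values normalized to no-competitor controls, four-parameter curve fit.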

[3] = tested on: M21 human melanoma cells; experiment: M21 melanoma cell adhesion assay (αvβ3-dependent adhesion to human fibrinogen-coated plates); type: cell-based
Experimental: M21 MELANOMA CELL ADHESION ASSASY
This assay involves an αvβ3-dependent adhesion of M21 human melanoma cells to human fibrinogen-coated plastic tissue culture dishes.
Fibrinogen was purified from human plasma. Fibronectin and plasminogen were eliminated from the preparation by passing the sample over gelatin-sepharose 4B and lysine-sepharose 4B resins, respectively. The fibrinogen is diluted to 10 μg/mL in coating buffer ([…] Tris-HCl, 150 mM NaCl, pH 7.4). 100 μL of diluted fibrinogen is added to each well of a 96-well Immulon 2 microtiter plate (Dynatech; Chantilly, Va.) and allowed to coat overnight at 4° C. Plates are blocked with 1% BSA (Miles/Pentex; Kankakee, Ill.) in adhesion buffer (Hank's balanced salt solution without Ca^++ or Mg^++ [HBSS−−], 50 mM Hepes, 1 mg/mL BSA, pH 7.4) for 1 hour at 37° C.
M21 human melanoma cells were provided by Dr. J. Smith, La Jolla Cancer Research Institute. M21 cells are harvested from tissue culture flasks by washing with HBSS−− and adding cell dissociation solution (Sigma) and incubating for 5 minutes at 37° C. Harvested cells are washed 3 times with adhesion assay buffer containing 200 μM Mn^++. Cells are counted and suspended to a density of 2×10^6/mL in adhesion assay buffer containing 200 μM Mn^++. M21 cells are pre-incubated with antagonists of αvβ3 for 30 minutes at room temperature. Following the pre-incubation, the solutions containing a mixture of cells and antagonists are added to each well of the microtiter plate and allowed to bind for 30 minutes at 37° C.
Following adhesion, plates are gently washed 3 times with 200 μL of wash buffer (50 mM Tris-HCl, 150 mM NaCl, pH 7.4) using large bore pipet tips. Plates are briefly blotted dry and 100 μL of cell lysis buffer (50 mM sodium acetate, pH 5.0, 0.5% Triton X-100, 0.3 mg/mL p-nitrophenyl phosphate [Sigma] is added to each well. Plates are incubated for 60 minutes at 37° C. and 50 μL of 1N NaOH is added to stop the reaction. The absorbance of the wells at […] is read using an automatic plate reader.

[4] = biological target: T2, Human fibrinogen receptor (αIIbβ3) (Homo sapiens, UniProt P05106+P08514); experiment: Purified IIb/IIIa receptor assay (solid phase receptor assay, competition with biotinylated vitronectin); type: binding
T2 construct: Human fibrinogen receptor (αIIbβ3) was purified from outdated platelets; from tissue; host or cells: outdated human platelets
Outline: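 Competition format: 1 nM biotinylated vitronectin plus test compound (highest 1.0×10^−4 M), 2 h at room temperature on wells coated with platelet-derived αIIbβ3. Buffer was TBS containing 1.0 mM Ca, Mg, Mn, pH 7.4. HRP anti-biotin readout at 450 nm; normalized to maximum binding, four-parameter curve fit.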

[5] = trifluoroacetate salt; read-out: M21 Melanoma Cells IC50
[6] = ADP induced platelet aggregation in human platelet rich plasma
[7] = Homo sapiens, M21, read-out: M21 Melanoma Cells IC50
[8] = Homo sapiens, M21; read-out: M21 Melanoma Cells IC50
[9] = Homo sapiens, Platelet, ADP induced platelet aggregation in human platelet rich plasma

SMILES	pIC50 ([2]; read-out: AvB3 IC50)	pIC50 ([4]; read-out: IIb/IIIa IC50)	pIC50 [1, 9]	other results
C#C[C@H](CC(=O)O)NC(=O)CNC(=O)c1cccc(NC(=N)N)c1 [Example 69, 3S-[[2-[[[3-[(aminoiminomethyl)amino]phenyl]carbonyl]amino]acetyl]amino]-4-pentynoic acid, trifluoroacetate salt]	9.04	7.47		pIC50 ([1]; ADP induced platelet aggregation in human platelet rich plasma, trifluoroacetate salt): < 3.70; pIC50 [3, 5]: 9.02
NC(=O)Nc1cccc(C(=O)NCC(=O)NC(CC(=O)O)c2cccnc2)c1 (stereo not drawn) [Example 110, β-[[2-[[[3-(aminocarbonylamino)phenyl]carbonyl]amino]acetyl]amino]pyridine-3-propanoic acid, trifluoroacetate salt]	8.35	5.73		pIC50 [1, 6]: < 3.70; pIC50 [3, 5]: 6.75
N=C(N)Nc1cccc(C(=O)NCC(=O)N[C@H](COC(=O)c2ccccc2N)CC(=O)O)c1 [Example 94, 2S-[[2-[[[3-[[aminoiminomethyl]amino]phenyl]carbonyl]amino]acetyl]amino]-3-carboxypropyl 2-aminobenzoate, bis(trifluoroacetate)salt, monohydrate]				pIC50 ([1]; Homo sapiens, Platelet): < 3.70; pIC50 ([2]; AvB3 IC50): 8.94; pIC50 [3, 7]: 9.00; pIC50 ([4]; IIb/IIIa IC50): 7.00
CCOC(=O)CC(NC(=O)CNC(=O)c1cccc(NC(=N)N)c1)c1ccccc1 (racemic) [Example 3, (±)ethyl β-[[2-[[[3-[(aminoiminomethyl)amino]phenyl]carbonyl]amino]acetyl]amino]benzenepropanoate, trifluoroacetate salt]	6.30	4.14		pIC50 [3, 8]: 5.52
O=C(O)CC(NC(=O)CNC(=O)c1cccc(NC(=O)NCc2ccccc2)c1)c1ccccc1 (stereo not drawn) [Example 119, β-[[2-[[[3-[[[(phenylmethyl)amino]carbonyl]amino]phenyl]carbonyl]amino]acetyl]amino]benzenepropanoic acid]	8.44	4.95		pIC50 ([1]; Homo sapiens, Platelet): < 4.70; pIC50 [3, 7]: 7.04
N=C(N)Nc1cccc(C(=O)NCC(=O)NCCC(=O)O)c1 [Example 97, N-[2-[[[3-[(aminoiminomethyl)amino]phenyl]carbonyl]amino]acetyl]-β-alanine]	7.57	5.93		pIC50 [3, 8]: 6.79
C#C[C@@H](CC(=O)O)NC(=O)CNC(=O)c1cccc(NC(=N)N)c1 [Example 70, 3R-[[2-[[[3-[(aminoiminomethyl)amino]phenyl]carbonyl]amino]acetyl]amino]-4-pentynoic acid, trifluoroacetate salt]	7.20	5.49		pIC50 [1, 6]: < 3.70; pIC50 [3, 5]: 6.03
O=C(O)CC(NC(=O)CNC(=O)c1cccc(NC(=O)NCc2ccccc2)c1)c1cccnc1 (racemic) [Example 106, (±)β-[[2-[[[3-[[[(phenylmethyl)amino]carbonyl]aminophenyl]carbonyl]amino]acetyl]-amino]pyridine-3-propanoic acid]	9.10	5.50		pIC50 ([3]; read-out: M21 Melanoma Cells IC50): 9.09
N=C(N)Nc1cc(C(=O)NCC(=O)NC(CC(=O)O)c2cc(Cl)cc(Cl)c2)cc(C(F)(F)F)c1 (racemic) [Example 177, (±)β-[[2-[[[3-[(aminoiminomethyl)amino]-5-(trifluoromethyl)phenyl]carbonyl]amino]acetyl]amino]-3,5-dichlorobenzenepropanoic acid, trifluoroacetate salt]	9.24	6.86	< 4.70	
NC(=S)Nc1cccc(C(=O)NCC(=O)NC(CC(=O)O)c2ccccc2)c1 (stereo not drawn) [Example 117, β-[[2-[[[3-[(aminothioxomethyl)amino]phenyl]carbonyl]amino]acetyl]amino]benzenepropanoic acid]	7.22	4.70	< 3.70	
O=C(O)CC(NC(=O)CNC(=O)c1cc(NC2=NCCCCC2)cc(NC2=NCCCCC2)c1)c1cccnc1 (racemic) [Example 22, (±)β-[[2-[[[3,5-bis[(3,4,5,6-tetrahydro-2H-azepin-7-yl)amino]phenyl]carbonyl]amino]acetyl]amino]pyridine-3-propanoic acid, tris(trifluoroacetate)salt]	8.86	6.55	< 3.70	
N=C(N)Nc1cc(C(=O)NCC(=O)NC(CC(=O)O)c2ccccc2)ccc1Cl (stereo not drawn) [Example 150, β-[[2-[[[3-[(aminoiminomethyl)amino]-4-chlorophenyl)carbonyl]amino]acetyl]amino]benzenepropanoic acid]	8.24	6.20	< 3.70	
CN(CC(=O)NC(CC(=O)O)c1cccnc1)C(=O)c1cccc(NC(=N)N)c1 (racemic) [Example 80, (±)β-[[2-[[[3-[(aminoiminomethyl)amino]phenyl]carbonyl]methylamino]acetyl]amino]pyridine-3-propanoic acid, bis(trifluoroacetate)salt]	8.02	8.36	4.52	
N=C(N)Nc1cccc(C(=O)NCC(=O)NC(CC(=O)O)c2ccco2)c1 (racemic) [Example 55, (±)β-[[2-[[[3-[(aminoiminomethyl)amino]phenyl]carbonyl]amino]acetyl]amino]furan-2-propanoic acid, trifluoroacetate salt]	8.32	6.93	< 3.70	
N=C(N)Nc1cccc(C(=O)NCC(=O)NC(CC(=O)O)c2cccnc2)c1 (racemic) [Example 2, (±)β-[[2-[[[3-[(aminoiminomethyl)amino]phenyl]carbonyl]amino]acetyl]amino]pyridine-3-propanoic acid, bis(trifluoroacetate)salt]	9.27	7.29		pIC50 ([1]; Homo sapiens, Platelet): 3.70; pIC50 [3, 7]: 9.60
O=C(O)CC(NC(=O)CNC(=O)c1ccc(Cl)c(NC2=NCCCCC2)c1)c1cccnc1 (racemic) [Example 21, (±)β-[[2-[[[4-chloro-3-[(3,4,5,6-tetrahydro-2H-azepin-7-yl)amino]phenyl]carbonyl]amino]acetyl]amino]pyridine-3-propanoic acid, bis TFA Salt]	8.61	5.72	< 3.70	
